# Target: PRMT5/MEP50 (Homo sapiens (Human), UniProt O14744)
# Assay: PRMT5 Biochemical Assay (PRMT5/MEP50 enzyme assay on peptide substrate, 3H-SAM Flashplate)
# Conditions: PRMT5 biochemical assay; read-out: Biochemical IC50
# Excerpt: S-adenosylmethionine (SAM), S-adenosylhomocysteine (SAH), bicine, KCl, Tween20, dimethylsulfoxide (DMSO), bovine skin gelatin (BSG), and Tris(2-carboxyethyl)phosphine hydrochloride solution (TCEP) were purchased from Sigma-Aldrich at the highest level of purity possible. ^3H-SAM was purchase from American Radiolabeled Chemicals with a specific activity of 80 Ci/mmol. 384-well streptavidin Flashplates were purchased from PerkinElmer.
# Peptide representative of human histone H4 residues 1-15 was synthesized with a C-terminal linker-affinity tag motif and a C-terminal amide cap by 21st Century Biochemicals. […] The sequence was Ac-[…][K-Biot]-amide (SEQ ID NO.:3).
# Full-length human MEP50 (NM_024102) clone was amplified from a human testis cDNA library incorporating a 5′ sequence encoding a 6-histidine tag (MHHHHHH)(SEQ ID NO.:5) fused directly to Arg 2 of MEP50. The amplified genes were sublconed into pENTR/D/TEV (Life Technologies) and subsequently transferred by Gateway™ attL×attR recombination to pDEST8 baculvirus expression vector (Life Technologies).
# Recombinant baculovirus and Baculovirus-Infected Insect Cells (BIIC) were generated according to Bac-to-Bac kit instructions (Life Technologies) and Wasilko, 2006, respectively. Protein over-expression was accomplished by infecting exponentially growing Spodoptera frugiperda (SF9) cell culture at 1.2×10^6 cell/ml with a 5000 fold dilution of BIIC stock. Infections were carried out at 27° C. for 72 hours, harvested by centrifugation, and stored at −80° C. for purification.
# Flag-PRMT5/6His-MeP50 was eluted with 300 mM Imidazole in the same buffer. […] Reference: Wasilko, D. J. and S. E. Lee: “TIPS: titerless infected-cells preservation and scale-up” Bioprocess J., 5 (2006), pp. 29-32.
# General Procedure for PRMT5/MEP50 Enzyme Assays on Peptide Substrates.
# The assays were all performed in a buffer consisting of 20 mM Bicine (pH=7.6), 1 mM TCEP, 0.005% BSG, and 0.002% Tween20, prepared on the day of use. Compounds in 100% DMSO (1 ul) were spotted into a polypropylene 384-well V-bottom plates (Greiner) using a Platemate Plus outfitted with a 384-channel head (Thermo Scientific). DMSO (1 ul) was added to Columns 11, 12, 23, 24, rows A-H for the maximum signal control and 1 ul of SAH, a known product and inhibitor of PRMT5/MEP50, was added to columns 11, 12, 23, 24, rows I-P for the minimum signal control. A cocktail (40 ul) containing the PRMT5/MEP50 enzyme and the peptide was added by Multidrop Combi (Thermo-Fisher). The compounds were allowed to incubate with PRMT5/MEP50 for 30 min at 25 degrees Celsius, then a cocktail (10 ul) containing ^3H-SAM was added to initiate the reaction (final volume=51 ul).
# PRMT5/MEP50, sequence (O14744 other isoform, or with tags, fused parts or gaps): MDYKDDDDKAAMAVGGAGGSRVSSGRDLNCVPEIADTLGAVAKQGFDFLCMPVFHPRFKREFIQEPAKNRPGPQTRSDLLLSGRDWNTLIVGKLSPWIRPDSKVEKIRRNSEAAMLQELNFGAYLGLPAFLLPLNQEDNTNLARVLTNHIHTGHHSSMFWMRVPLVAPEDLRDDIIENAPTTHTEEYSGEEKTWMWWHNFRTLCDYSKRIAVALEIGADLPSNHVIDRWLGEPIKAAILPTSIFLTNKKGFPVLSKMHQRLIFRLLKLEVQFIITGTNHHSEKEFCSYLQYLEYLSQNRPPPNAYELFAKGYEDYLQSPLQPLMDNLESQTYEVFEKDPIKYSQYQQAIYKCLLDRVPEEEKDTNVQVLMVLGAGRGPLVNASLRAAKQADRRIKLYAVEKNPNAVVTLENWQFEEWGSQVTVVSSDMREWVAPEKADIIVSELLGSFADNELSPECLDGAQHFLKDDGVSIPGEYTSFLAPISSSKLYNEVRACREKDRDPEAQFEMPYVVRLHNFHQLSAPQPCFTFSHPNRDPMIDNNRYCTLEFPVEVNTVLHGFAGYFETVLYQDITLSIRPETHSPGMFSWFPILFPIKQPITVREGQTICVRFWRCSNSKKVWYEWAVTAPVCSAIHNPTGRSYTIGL
# PRMT5/MEP50, sequence (Q9BQA1 other isoform, or with tags, fused parts or gaps partner): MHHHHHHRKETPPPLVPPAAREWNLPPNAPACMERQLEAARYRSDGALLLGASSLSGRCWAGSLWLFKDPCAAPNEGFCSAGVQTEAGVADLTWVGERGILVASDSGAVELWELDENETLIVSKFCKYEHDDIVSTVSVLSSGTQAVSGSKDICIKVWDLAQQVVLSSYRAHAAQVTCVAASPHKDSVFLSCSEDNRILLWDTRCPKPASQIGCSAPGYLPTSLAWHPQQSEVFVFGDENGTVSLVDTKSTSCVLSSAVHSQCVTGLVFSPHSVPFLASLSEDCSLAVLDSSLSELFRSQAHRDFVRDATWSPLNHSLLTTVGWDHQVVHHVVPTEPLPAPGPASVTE
row,Compound,IC50 [µM]
1,CN(C)S(=O)(=O)c1ccccc1OCC(=O)NCC(O)CN1CCc2ccccc2C1 (stereo not drawn) [Compound 109],< 0.1
2,O=C(COc1ccccc1S(=O)(=O)N1CCCC1)NCC(O)CN1CCc2ccccc2C1 (stereo not drawn) [Compound 110],< 0.1
3,O=C(COc1ccccc1S(=O)(=O)N1CCC(O)C1)NCC(O)CN1CCc2ccccc2C1 (stereo not drawn) [Compound 111],< 0.1
4,O=C(COc1cccc2c1CNCC2)NCC(O)CN1CCc2ccccc2C1 (stereo not drawn) [Compound 119],< 0.1
5,CNS(=O)(=O)c1ccccc1OCC(=O)NCC(O)CN1CCc2ccccc2C1 (stereo not drawn) [Compound 123],< 0.1
6,CC(Oc1ccccc1S(N)(=O)=O)C(=O)NCC(O)CN1CCc2ccccc2C1 (stereo not drawn) [Compound 126],> 50
7,CC(=O)Nc1cccnc1OCC(=O)NCC(O)CN1CCc2ccccc2C1 (stereo not drawn) [Compound 128],> 50
8,CN1CCCC(c2ccccc2OCC(=O)NCC(O)CN2CCc3ccccc3C2)C1 (stereo not drawn) [Compound 130],< 0.1
9,CN(C)c1cccnc1OCC(=O)NCC(O)CN1CCc2ccccc2C1 (stereo not drawn) [Compound 133],> 10
10,CS(=O)(=O)Nc1ncccc1OCC(=O)NCC(O)CN1CCc2ccccc2C1 (stereo not drawn) [Compound 139],> 10
11,O=C(COc1cccc2cccnc12)NCC(O)CN1Cc2ccccc2C(F)(F)C1 (stereo not drawn) [Compound 144],> 10
12,Cc1cn(C)c2cccc(OCC(=O)NCC(O)CN3CCc4ccccc4C3)c12 (stereo not drawn) [Compound 146],< 0.1
13,CC(=O)Nc1ncccc1OCC(=O)NCC(O)CN1CCc2ccccc2C1 (stereo not drawn) [Compound 147],> 10
14,CC(=O)Nc1cncc(OCC(=O)NCC(O)CN2CCc3ccccc3C2)c1 (stereo not drawn) [Compound 148],> 10
15,O=C(COc1ccccc1S(=O)(=O)N1CCOCC1)NCC(O)CN1CCc2ccccc2C1 (stereo not drawn) [Compound 149],< 0.1
16,Cn1cnc(-c2ccccc2OCC(=O)NCC(O)CN2CCc3ccccc3C2)c1 (stereo not drawn) [Compound 153],< 0.1
17,O=C(COc1cccc2cnncc12)NCC(O)CN1CCc2ccccc2C1 (stereo not drawn) [Compound 154],1 to 10
18,CN(c1ccccc1OCC(=O)NCC(O)CN1CCc2ccccc2C1)S(C)(=O)=O (stereo not drawn) [Compound 155],< 0.1
19,Cn1cncc1-c1ccccc1OCC(=O)NCC(O)CN1CCc2ccccc2C1 (stereo not drawn) [Compound 156],1 to 10
20,CC(Oc1ccccc1NS(C)(=O)=O)C(=O)NCC(O)CN1CCc2ccccc2C1 (stereo not drawn) [Compound 157],1 to 10
21,Cc1nn(C)c2cccc(OCC(=O)NCC(O)CN3CCc4ccccc4C3)c12 (stereo not drawn) [Compound 158],< 0.1
22,Cn1ncc2ccc(OCC(=O)NC[C@H](O)CN3CCc4ccccc4C3)cc21 [Compound 159],< 0.1

row,Compound,IC50 [µM]
1,Cn1ncc2ccc(OCC(=O)NC[C@@H](O)CN3CCc4ccccc4C3)cc21 [Compound 160],0.101 to 1
2,O=C(COc1cncc(C(=O)N2CCOCC2)c1)NCC(O)CN1CCc2ccccc2C1 (stereo not drawn) [Compound 161],0.101 to 1
3,CC(=O)Nc1ccncc1OCC(=O)NCC(O)CN1CCc2ccccc2C1 (stereo not drawn) [Compound 162],1 to 10
4,Cc1cn(C)c2cccc(OCC(=O)NC[C@H](O)CN3CCc4ccccc4C3)c12 [Compound 163],< 0.1
5,Cc1cn(C)c2cccc(OCC(=O)NC[C@@H](O)CN3CCc4ccccc4C3)c12 [Compound 164],< 0.1
6,O=C(NCC(O)CN1CCc2ccccc2C1)C(O)c1ccccc1 (stereo not drawn) [Compound 165],0.101 to 1
7,O=C(COC1CCCOC1)NCC(O)CN1CCc2ccccc2C1 (stereo not drawn) [Compound 166],1 to 10
8,O=C(COCCN1CCOCC1)NCC(O)CN1CCc2ccccc2C1 (stereo not drawn) [Compound 167],1 to 10
9,Nc1ncnc2c(OCC(=O)NCC(O)CN3CCc4ccccc4C3)cccc12 (stereo not drawn) [Compound 168],< 0.1
10,CN(C)c1cccc(OCC(=O)NCC(O)CN2CCc3ccccc3C2)c1S(N)(=O)=O (stereo not drawn) [Compound 169],< 0.1
11,CC(NC(=O)COc1ccccc1S(N)(=O)=O)C(O)CN1CCc2ccccc2C1 (stereo not drawn) [Compound 170],< 0.1
12,O=C(COC1CCOC1)NCC(O)CN1CCc2ccccc2C1 (stereo not drawn) [Compound 171],1 to 10
13,O=C(COc1cncc(CN2CCOCC2)c1)NCC(O)CN1CCc2ccccc2C1 (stereo not drawn) [Compound 172],0.101 to 1
14,CC(O)(C(=O)NCC(O)CN1CCc2ccccc2C1)c1ccccc1 (stereo not drawn) [Compound 173],1 to 10
15,O=C(Cc1ccc2c(c1)OCO2)NC[C@H](O)CN1CCc2ccccc2C1 [Compound 174],0.101 to 1
16,"O=C(CCc1nc2ccccc2[nH]1)NC[C@H](O)CN1CCc2ccccc2C1 [Compound 175, (S)-3-(1H-benzo[d]imidazol-2-yl)-N-(3-(3,4-dihydroisoquinolin-2(1H)-yl)-2-hydroxypropyl)propanamide]",< 0.1
17,CN1CCN(CCOCC(=O)NCC(O)CN2CCc3ccccc3C2)CC1 (stereo not drawn) [Compound 176],1 to 10
18,O=C(NC[C@H](O)CN1CCc2ccccc2C1)C1CNc2ccccc21 (stereo partly drawn) [Compound 177],0.101 to 1
19,O=C(CC1CCc2ccccc21)NC[C@H](O)CN1CCc2ccccc2C1 (stereo partly drawn) [Compound 178],0.101 to 1
20,O=C(CC1Cc2ccccc2C1)NC[C@H](O)CN1CCc2ccccc2C1 [Compound 179],0.101 to 1
21,O=C(NC[C@H](O)CN1CCc2ccccc2C1)C1CCCc2ccccc21 (stereo partly drawn) [Compound 180],1 to 10
22,O=C(COc1cccc2cncnc12)NCC(O)CN1CCc2ccccc2C1 (stereo not drawn) [Compound 181],< 0.1

row,Compound,IC50 [µM]
1,O=C(Cc1c[nH]c2ccccc12)NC[C@H](O)CN1CCc2ccccc2C1 [Compound 182],0.101 to 1
2,O=C(NC[C@H](O)CN1CCc2ccccc2C1)C1COc2ccccc2O1 (stereo partly drawn) [Compound 183],0.101 to 1
3,O=C(NC[C@H](O)CN1CCc2ccccc2C1)[C@@H]1C[C@@H]2CCCC[C@@H]2N1 [Compound 184],1 to 10
4,O=C(NC[C@H](O)CN1CCc2ccccc2C1)[C@H]1Cc2ccccc2CN1 [Compound 185],0.101 to 1
5,O=C(COc1cccc(-c2ncc[nH]2)c1)NC[C@@H](O)CN1CCc2ccccc2C1 [Compound 186],1 to 10
6,Cn1ccnc1-c1cccc(OCC(=O)NC[C@@H](O)CN2CCc3ccccc3C2)c1 [Compound 187],1 to 10
7,O=C(COc1cccc(C(=O)NCCN2CCOCC2)c1)NC[C@@H](O)CN1CCc2ccccc2C1 [Compound 188],1 to 10
8,O=C(COc1cccc(C(=O)NCCc2c[nH]cn2)c1)NC[C@@H](O)CN1CCc2ccccc2C1 [Compound 189],0.101 to 1
9,CN1CCN(c2cccc(OCC(=O)NC[C@@H](O)CN3CCc4ccccc4C3)c2)CC1 [Compound 190],< 0.1
10,CN(C)CCN(C)S(=O)(=O)c1ccccc1OCC(=O)NC[C@@H](O)CN1CCc2ccccc2C1 [Compound 191],< 0.1
11,"O=C(CCc1nc2ccccc2[nH]1)NC[C@@H](O)CN1CCc2ccccc2C1 [Compound 192, (R)-3-(1H-benzo[d]imidazol-2-yl)-N-(3-(3,4-dihydroisoquinolin-2(1H)-yl)-2-hydroxypropyl)propanamide]",0.101 to 1
12,O=C(CCc1nc2ccccc2s1)NC[C@@H](O)CN1CCc2ccccc2C1 [Compound 193],1 to 10
13,O=C(COc1nc2ccccc2[nH]1)NC[C@@H](O)CN1CCc2ccccc2C1 [Compound 212],1 to 10
14,O=C(COc1cccc(C(=O)NCCn2ccnc2)c1)NC[C@@H](O)CN1CCc2ccccc2C1 [Compound 230],1 to 10
15,CN1CCN(S(=O)(=O)c2ccccc2OCC(=O)NC[C@@H](O)CN2CCc3ccccc3C2)CC1CO (stereo partly drawn) [Compound 233],1 to 10
16,O=C(COc1ccccc1[C@H]1CCCCN1)NC[C@@H](O)CN1CCc2ccccc2C1 [Compound 235],1 to 10
17,O=C(CCn1cnc2ccccc21)NC[C@H](O)CN1CCc2ccccc2C1 [Compound 248],1 to 10
18,[2H]C1([2H])Cc2ccccc2C([2H])([2H])N1C[C@@H](O)CNC(=O)CCc1nc2ccccc2[nH]1 [Compound 251],0.101 to 1
19,Cn1c(CCC(=O)NC[C@@H](O)CN2CCc3ccccc3C2)nc2ccccc21 [Compound 268],1 to 10
20,O=C(COc1ccccc1N1CCNCC1)NC[C@@H](O)CN1CCc2ccccc2C1 [Compound 270],1 to 10
21,CN1CC[C@@H](CN(C)S(=O)(=O)c2ccccc2OCC(=O)NC[C@@H](O)CN2CCc3ccccc3C2)C1 [Compound 272],< 0.1
22,"N-(3-(3,4-dihydroisoquinolin-2(1H)-yl)-2-hydroxypropyl)-2-((5,6,7,8-tetrahydronaphthalen-1-yl)oxy)acetamide [Compound 62]",1 to 10
